# Assay results taken from ChEMBL document CHEMBL3507680, “University of Dundee, Gates Library screen for HepG2 cell viability”.
# Assay: Human HepG2 cell viability assay in 384 well format
# Type: toxicity, cell-based
# Set-up: dose 125 nL, time 70.5 hour; cytotoxicity at 70.5 h: concentration not given beside the values
# Details: HepG2 cells, read-out: Inhibition
row,Compound,cytotoxicity at 70.5 h [%]
1,Nc1nc2c(c(N3CCOCC3)n1)CCN(C(=O)c1ccc[nH]1)CC2,-7.85
2,CCCNC(=O)CNc1ccccc1OCCC(=O)OC,-7.23
3,CC(C)Cn1ccnc1CNC(=O)NC(C)c1nccs1 (stereo unspecified),1.43
4,O=C1N(CC2CC2)CCC12CCCN(c1ncc(F)cn1)C2 (stereo unspecified),-3.11
5,Cc1sc(CN)nc1-c1ccccc1,-3.17
6,O=C1CCCN1CCCC(=O)N1CCCCC1c1ccc(F)cc1 (stereo unspecified),2.07
7,CC(=O)N[C@@H]1CN(Cc2ccccc2-n2cccn2)C[C@H]1C(C)C,-4.08
8,O=C(C1CCOCC1)N1CCO[C@@H]2[C@@H](OCc3ccncc3)CC[C@@H]21,-22.7
9,CC(Nc1nc(-c2ccccc2)nc2c1CCNCC2)c1cccnc1 (stereo unspecified),2.48
10,CCS(=O)(=O)N1C[C@@H](O)[C@H](N2CCc3ccccc3C2)C1,-5.96
11,Cc1c(C(=O)N2CCSCC2)sc2nc(C(F)(F)F)ccc12,-9.06
12,Cn1nc(C#N)c2c1CN(C(=O)c1ccsc1)CCC2,5.67
13,CCOCC1CN(C(=O)c2cscn2)Cc2cnn(CC3CC3)c21 (stereo unspecified),8.12
14,CC(C)OCCSCc1nnc(-c2cccc(F)c2)o1,-5.57
15,CNC(=O)c1c[nH]nc1C1CCCN1c1ncccn1 (stereo unspecified),-4.93
16,CCN(Cc1nc2c(cnn2C)c(=O)[nH]1)c1cc(C)ccc1C,-15.9
17,Cc1nc(C)c(C(=O)N2CCc3[nH]nc(COc4ccccc4)c3C2)s1,-1.76
18,Cc1ncsc1CCN(C)C(=O)CN1CCOC1=O,8.27
19,COCC1CCN(C(=O)c2cccc(S(=O)(=O)NCC3(C)COC3)c2)C1 (stereo unspecified),-3.93
20,COc1cccc(CC(=O)N2CCCN(c3ccnc(C)c3)CC2)c1,-3.97
21,CC(NC(=O)NCCCn1cncn1)c1ccc(C#N)cc1 (stereo unspecified),1.25

row,Compound,cytotoxicity at 70.5 h [%]
1,CC1CN(C(=O)c2cc[nH]c(=O)c2)c2ccccc21 (stereo unspecified),-12.3
2,COc1ccc(NC(=O)CSc2nncn2-n2cccc2)c(OC)c1,-14.5
3,Cc1cccc(C(=O)NCC(O)c2ccc(F)cc2F)c1 (stereo unspecified),-0.893
4,Cc1ccc(C2CN(C(=O)c3ccn(C)c(=O)c3)CCO2)nc1 (stereo unspecified),-7.64
5,CCOCC1CN(Cc2cnn(C)c2)Cc2cnn(C)c21 (stereo unspecified),-9.88
6,Cc1cc(C(=O)NCCN2CCCC(C)C2)nn1C(C)(C)C (stereo unspecified),-22.7
7,CC(C)c1cc(C(=O)N2CCCC(n3cncn3)C2)n[nH]1 (stereo unspecified),6.33
8,Cc1nn(C)c(C)c1C1CCCN1C(=O)CCc1cscn1 (stereo unspecified),-6.08
9,Cc1cnn(CC2CCCCN2C(=O)c2ccc(CN(C)C)cc2)c1 (stereo unspecified),-8.06
10,CCc1nc(C)c(CN2CCOC(Cc3cccc4ccccc34)C2)[nH]1 (stereo unspecified),-2.51
11,CC(C)[C@]1(O)CN(C(=O)CNC(N)=O)C[C@H]1C,-0.763
12,CC(C)(C)S(=O)(=O)CCNC(=O)c1ccc2ccccc2c1,0.161
13,Cc1ccc(C)c(CS(=O)(=O)CC(=O)Nc2ccc(F)cc2F)c1,-7.2
14,CC1CCCCN1C(=O)CCc1nnc(-c2ccccc2)o1 (stereo unspecified),-1.68
15,N#CCCN(CC1CCCO1)C(=O)c1ccc2nonc2c1 (stereo unspecified),0.813
16,Cc1nc(C)c(C(=O)N2CCCC2c2nc(O)cc(C(C)C)n2)s1 (stereo unspecified),-6.05
17,OCCN1CCC(c2csc(Nc3cnccn3)n2)CC1,14.5
18,Cc1ccc(-n2ccc3nc(N4CCCC4)ncc3c2=O)cc1C,9.54
19,O=C(c1ccc[nH]1)N1CCCC(c2cc(C(F)(F)F)[nH]n2)C1 (stereo unspecified),-0.878
20,CC(NC(=O)NCCCn1cccn1)c1ccccn1 (stereo unspecified),-5.57
